From patent US10980822B2, “Medicinal composition comprising SGLT-2 inhibitor and angiotensin receptor blocker” (AUTOTELIC BIO INC., priority 2017, dated 2021)

Key:
[1] = system: spontaneously hypertensive rats (SHRs); assay: 2-week evaluation of blood pressure lowering effect (non-invasive tail blood pressure, CODA-6); assay type: in vivo, rat; conditions: olmesartan medoxomil 1, valsartan 4, telmisartan 4, dapagliflozin (as propylene glycol hydrate) 1 mg/kg/day; for Systolic blood pressure immediately before administration: 10-week-old SHR, baseline, mean of 5 rats; for Size of blood pressure reduction / Systolic blood pressure at 14th day after administration: SHR; for Size of blood pressure reduction: 14th day versus before administration; for Systolic blood pressure at 14th day after administration: once daily for 14 days, measured 2 hours after dosing
Procedure: The SHR rats are rats derived from Wistar Kyoto WKY) rats with normal blood pressure, and are rats that spontaneously develop hypertension with aging without any artificial treatment. […] The blood pressure in the experimental animals was measured using a CODA-6 system (Kent Scientific Corp.) which is a non-invasive blood pressure (NIBP) measurement system. […] The rats were divided into total 7 groups according to the kind of drug to be administered, and five rats were randomly assigned to each group. The groups administered with each drug are as follows: (2) a group administered with 1 mg/kg/day of olmesartan medoxomil alone; (3) a group administered with 4 mg/kg/day of valsartan alone; (4) a group administered with 4 mg/kg/day of telmisartan alone; (5) a group administered with a combination of 1 mg/kg/day of olmesartan medoxomil+1 mg/kg/day of dapagliflozin; (6) a group administered with a combination of 4 mg/kg/day of valsartan+1 mg/kg/day of dapagliflozin; (7) a group administered with a combination of 4 mg/kg/day of telmisartan+1 mg/kg/day of dapagliflozin. (*In this Example, a dapagliflozin propylene glycol hydrate corresponding to 1 mg of dapagliflozin was administered actually). For drug administration, each drug was administered to each rat once a day at a predetermined dose at the same time every morning. Considering that the amounts of antihypertensive drugs used in humans are different, the antihypertensive drugs were administered at different doses.

SHR rats = assay: 4-week evaluation of blood pressure lowering effect (non-invasive tail systolic and diastolic blood pressure); assay type: in vivo, rat; conditions: for Diastolic blood pressure at 1st week after administration / Diastolic blood pressure at 2nd week after administration / Diastolic blood pressure at 3rd week after administration / Diastolic blood pressure at 4th week after administration / Systolic blood pressure at 1st week after administration / Systolic blood pressure at 2nd week after administration / Systolic blood pressure at 3rd week after administration / Systolic blood pressure at 4th week after administration: oral once daily; for Diastolic blood pressure immediately after administration / Systolic blood pressure immediately after administration: oral, mean of 8 rats
Procedure: As experimental animals, 6-week-old male SHR rats were used (however, WKY rats were used as a normal control). A method for measurement of blood pressure is as follows: […] The rats were divided into total 7 groups according to the kind of drug to be administered, and eight rats were randomly assigned to each group. The groups administered with each drug are as follows: (3) a group administered with test substance 1 (G3): a group administered with a combination of 2 mg/kg/day of olmesartan medoxomil+1 mg/kg/day of dapagliflozin; (4) a group administered with test substance 2 (G4): a group administered with a combination of 2 mg/kg/day of olmesartan medoxomil+3 mg/kg/day of dapagliflozin; (5) a group administered with comparative substance 1 (G5): a group administered with 2 mg/kg/day of olmesartan medoxomil alone; (6) a group administered with comparative substance 2 (G6): a group administered with 1 mg/kg/day of dapagliflozin alone; (7) a group administered with […]: a group administered with 3 mg/kg/day of dapagliflozin alone. (* In this Experimental Example, dapagliflozin was administered in an anhydride form, not a solvate form). For drug administration, each drug was forcibly administered into the rat's stomach through a disposable syringe with an oral zonde at a predetermined dose at the same time every day. As test substances, olmesartan medoxomil was administered, and then immediately dapagliflozin was administered. The doses of the antihypertensive drug and the antidiabetic drug were determined considering the doses to be applied in clinical practice.

[2] = SHR, 1st to 4th week, olmesartan medoxomil 2 mg/kg/day with (G3) or without (G5) dapagliflozin 1 mg/kg/day
[3] = SHR, olmesartan medoxomil 2 mg/kg/day and/or dapagliflozin 1 mg/kg/day (G3, G5, G6)
[4] = p<0.01 at 1st, 2nd, 3rd and 4th week, olmesartan medoxomil 2 mg/kg/day with (G3) or without (G5) dapagliflozin 1 mg/kg/day
[5] = SHR, dapagliflozin 3 mg/kg/day with (G4) or without (G7) olmesartan medoxomil 2 mg/kg/day

SMILES	Systolic blood pressure immediately before administration [1] [mmHg]	Size of blood pressure reduction [1] [mmHg]	Systolic blood pressure at 14th day after administration [1] [mmHg]	Diastolic blood pressure at 1st week after administration (SHR rats; [3]) [mmHg]	Diastolic blood pressure at 2nd week after administration (SHR rats; [3]) [mmHg]	Diastolic blood pressure at 3rd week after administration (SHR rats; [3]) [mmHg]	Diastolic blood pressure at 4th week after administration (SHR rats; [3]) [mmHg]	Systolic blood pressure at 1st week after administration (SHR rats; [3]) [mmHg]	Systolic blood pressure at 2nd week after administration (SHR rats; [3]) [mmHg]	Systolic blood pressure at 3rd week after administration (SHR rats; [3]) [mmHg]	Systolic blood pressure at 4th week after administration (SHR rats; [3]) [mmHg]	Diastolic blood pressure immediately after administration (SHR rats; [3]) [mmHg]	Systolic blood pressure immediately after administration (SHR rats; [3]) [mmHg]	further results
CCCc1nc(C(C)(C)O)c(C(=O)OCc2oc(=O)oc2C)n1Cc1ccc(-c2ccccc2-c2nnn[nH]2)cc1 [Olmesartan medoxomil, olmesartan medoxomil]	202	39	163	127	153	153	172	159	181	178	190	140	171	Range of mean diastolic blood pressure (SHR rats; [2]): 127 to 172 mmHg; Range of mean systolic blood pressure (SHR rats; [2]): 159 to 190 mmHg; Mean diastolic blood pressure compared with negative control group (G2) (SHR rats; [4]): statistically significantly lower; Mean systolic blood pressure compared with negative control group (G2) (SHR rats; [4]): statistically significantly lower
CCCc1nc2c(C)cc(-c3nc4ccccc4n3C)cc2n1Cc1ccc(-c2ccccc2C(=O)O)cc1 [Telmisartan, telmisartan]	203	35	168											
CCCCC(=O)N(Cc1ccc(-c2ccccc2-c2nnn[nH]2)cc1)[C@H](C(=O)O)C(C)C [Valsartan, valsartan]	200	30	170											
CCOc1ccc(Cc2cc([C@@H]3O[C@H](CO)[C@@H](O)[C@H](O)[C@H]3O)ccc2Cl)cc1 [dapagliflozin]				154	179	175	187	185	213	204	211	142	172	Diastolic blood pressure at 1st week after administration (SHR rats; [5]): 149 mmHg; Diastolic blood pressure at 2nd week after administration (SHR rats; [5]): 188 mmHg; Diastolic blood pressure at 3rd week after administration (SHR rats; [5]): 204 mmHg; Diastolic blood pressure at 4th week after administration (SHR rats; [5]): 186 mmHg; Systolic blood pressure at 1st week after administration (SHR rats; [5]): 189 mmHg; Systolic blood pressure at 2nd week after administration (SHR rats; [5]): 219 mmHg; Systolic blood pressure at 3rd week after administration (SHR rats; [5]): 228 mmHg; Systolic blood pressure at 4th week after administration (SHR rats; [5]): 212 mmHg; Diastolic blood pressure immediately after administration (SHR rats; [5]): 139 mmHg; Systolic blood pressure immediately after administration (SHR rats; [5]): 172 mmHg
